EC50, half-life and CC50 data for two molecules are collected here from US20250034186A1, “ANTIVIRAL COMPOUNDS” (priority 2020, published 2025).

Each structure is given as a SMILES string.

For series [1], the system named is RSV strain A2. The series can be described thus: RSV HEp-2 EC50, infectious cytopathic cell protection assay. The class given is cell-based. Particulars: human respiratory syncytial virus, 96 h; RSV A2 in HEp-2 cells, 4 days, Cell TiterGlo. As to the method:
Antiviral activity against RSV is determined using an infectious cytopathic cell protection assay in HEp-2 cells. In this assay, compounds inhibiting viral infection and/or replication produce a cytoprotective effect against the virus-induced cell killing that can be quantified using a cell viability reagent. The techniques used here are novel adaptations of methods described in published literature (Chapman et al., Antimicrob Agents Chemother. 2007, 51(9):3346-53.).
HEp-2 cells are obtained from ATCC (Manassas, VI) and maintained in MEM media supplemented with 10% fetal bovine serum and penicillin/streptomycin. Cells are passaged twice a week and kept at subconfluent stage. Commercial stock of RSV strain A2 (Advanced Biotechnologies, Columbia, MD) is titered before compound testing to determine the appropriate dilution of the virus stock that generates desirable cytopathic effect in HEp-2 cells.
For antiviral tests, HEp-2 cells are grown in large cell culture flasks to near confluency but not fully so. The compounds to be tested are prediluted in DMSO in 384-well compound dilution plates, either in an 8 or 40 sample per plate standardized dose response format. 3-fold serial dilution increments of each test compound are prepared in the plates and test samples are transferred via acoustic transfer apparatus (Echo, Labcyte) at 100 nL per well into cell culture assay 384-well plates. Each compound dilution is transferred in single or quadruplicate samples into dry assay plates, which are stored until assay is ready to go. The positive and negative controls are laid out in opposite on ends of the plate in vertical blocks (1 column).
Subsequently, an infectious mixture is prepared using an appropriate dilution of virus stock previously determined by titration with cells at a density of 50,000/mL and 20 μL/well is added to test plates w/compounds via automation (uFlow, Biotek). Each plate includes negative and positive controls (16 replicates each) to create 0% and 100% virus inhibition standards, respectively. Following the infection with RSV, testing plates are incubated for 4 days in a 37° C. cell culture incubator. After the incubation, a cell viability reagent, Cell TiterGlo (Promega, Madison, WI) is added to the assay plates, which are incubated briefly, and a luminescent readout is measured (Envision, Perkin Elmer) in all the assay plates. The RSV-induced cytopathic effect, percentage inhibition, is determined from the levels of remaining cell viability. […] Various potent anti-RSV tool compounds are used as positive controls for antiviral activity.
On the technique in general: Damage to the host cells serves as the signal in cytopathic effect assays.

For series [2], the system named is RSV A2. The series can be described thus: RSV NHBE EC50, RSV A2 antiviral assay. Format: cell-based. Particulars: human respiratory syncytial virus, 96 h; RSV A2 in NHBE cells, 4 days. As to the method: Normal human bronchial epithelial (NHBE) cells were purchased from Lonza (Walkersville, MD, Cat #CC-2540) and cultured in Bronchial Epithelial Growth Media (BEGM) (Lonza, Walkersville, MD, Cat #CC-3170). The cells were passaged 1-2 times per week to maintain <80% confluency. The NHBE cells were discarded after 6 passages in culture.
To conduct the RSV A2 antiviral assay, NHBE cells were plated in 96-well plates at a density of 7,500 cells per well in BEGM and allowed to attach overnight at 37° C. Following attachment, 100 μL of cell culture media was removed and 3-fold serially diluted compound was added using a Hewlett-Packard D300 Digital Dispenser. The final concentration of DMSO was normalized to 0.05%. Following compound addition, the NHBE cells were infected by the addition of 100 μL of RSV A2 at a titer of 1×10^4.5 tissue culture infectious doses/mL in BEGM and then incubated at 37° C. for 4 days. The NHBE cells were then allowed to equilibrate to 25° C. and cell viability was determined by removing 100 μL of culture medium and adding 100 μL of Cell-Titer Glo viability reagent. The mixtures were incubated for 10 minutes at 25° C., and the luminescence signal was quantified on an Envision luminescence plate reader.

Series [3] deals with HRV16. In words: HRV16 HeLa EC50. The class given is cell-based, human rhinovirus. The note with it: Human rhinovirus sp., HRV16; H1-HeLa cells, 96 h, 33° C. How it is done:
H1-HeLa cells, cultured in complete DMEM medium containing 10% heat-inactivated FBS and 1% Penicillin/Streptomycin, were seeded in 96 well plates at 3000 cells/well one day prior to compound dosing and infection. The antiviral activity of each compound was measured in triplicate. Compounds were added directly to the cell cultures in serial 3-fold dilutions using the HP300 digital dispenser (Hewlett Packard, Palo Alto, CA) immediately prior to infection. The plates were transferred to BSL-2 containment and the appropriate dilution of virus stock, previously determined by titration and prepared in cell culture media, was added to test plates containing cells and serially diluted compounds. Each plate included 6 wells of infected untreated cells and 6 wells of uninfected cells that served as 0% and 100% virus inhibition control, respectively. Following the infection, test plates were incubated for 96 h in a tissue culture incubator set to 33° C./5% CO2. Following incubation, the H1-HeLa cells were removed from incubation and allowed to equilibrate to 25° C. Cell viability was determined by removing 100 μL of culture medium and adding 100 μL of Cell-Titer Glo viability reagent. The mixtures were incubated on a shaker for 10 minutes at 25° C., and the luminescence signal was quantified on an Envision luminescence plate reader.

Series [4] can be described thus: Stability assay in human hepatic S9 fractions. The class given is in vitro ADME. The note with it: 37° C., NADPH and UDPGA, read-out: Hum HepS9 t1/2. As to the method:
(§1) For S9 stability, the compounds were incubated at 2 μM in cynomolgus monkey or human hepatic S9 fractions for up to 90 min at 37° C. in the presence of NADPH and UDPGA (Phase I and Phase II cofactor, Sigma-Aldrich). At desired time points following compound addition, samples were quenched with 9 volumes of an aqueous solution containing internal standard, 50% acetonitrile and 25% methanol. Sample plates were centrifuged at 3000 g for 30 min, and 10 μL of the resulting solution was analyzed by LC-MS/MS. Data (analyte to internal standard peak area ratio) were plotted on a semi log scale and fitted using an exponential fit. The half-life (T1/2) was determined assuming first order kinetics.

Series [5] in a line: Stability assay in cynomolgus monkey hepatic S9 fractions. The class given is in vitro ADME. The note with it: 37° C., NADPH and UDPGA, read-out: Cyno HepS9 t1/2. How it is done: as §1
Series [6] can be described thus: in vitro. Format: in vitro ADME. Particulars: plasma, 37° C., up to 4 h. How it is done:
For plasma stability, the compounds were incubated at 2 μM in cynomolgus monkey or human plasma for up to 4 h at 37° C. At desired time points, an aliquot from the incubation was quenched by addition of 9 volumes of 100% acetonitrile supplemented with internal standard. Following the last collection, samples were centrifuged at 3000 g for 30 min and supernatants were transferred to a new plate containing an equal volume of water for analysis by liquid chromatography coupled to triple quadrupole mass spectrometry (LC-MS/MS). Data (analyte to internal standard peak area ratio) were plotted on a semi log scale and fitted using an exponential fit. The half-life (T1/2) was determined assuming first order kinetics.

Series [7] is described as follows: HEp-2 cytotoxicity assay. The class given is cell-based. The note with it: human, HEp-2 cells (uninfected), 4-5 days. How it is done: (§2) Cytotoxicity of the compound of Formula I and compounds 1, 2, and 6 was determined in uninfected cells using the cell viability reagent in a similar fashion as described before for other cell types (Cihlar et al., Antimicrob Agents Chemother. 2008, 52(2):655-65.). HEp-2 (1.5×10^3 cells/well) and MT-4 (2×10^3 cells/well) cells were plated in 384-well plates and incubated with the appropriate medium containing 3-fold serially diluted compound ranging from 15 nM to 100,000 nM. Cells were cultured for 4-5 days at 37° C. Following the incubation, the cells were allowed to equilibrate to 25° C., and cell viability was determined by adding Cell-Titer Glo viability reagent. The mixture was incubated for 10 min, and the luminescence signal was quantified using an Envision plate reader. Untreated cell and cells treated at 2 μM puromycin (Sigma, St. Louis, MO) serve as 100% and 0% cell viability control, respectively.

A short description of series [8]: MT-4 cytotoxicity assay. The note with it: human, MT-4 cells (uninfected), 4-5 days, read-out: CC50 MT4. The class given is cell-based. As to the method:
as §2

[9] abbreviates: human, read-out: Hum Plasma t1/2.

A word on the EC50: it is the concentration at which the effect is half-maximal. In the case of `CCC(CC)COC(=O)[C@H](C)N[P@@](=O)(OC[C@@]1(C#N)O[C@@H](c2ccc3c(N)ncnn23)[C@H](O)[C@@H]1O)Oc1ccccc1` (single isomer, unassigned) [Compound 7], the half-maximal effective concentration (EC50) in series [1] came to 124 nM; in series [2], 91 nM; in series [3] it was 183 nM. The half-life at 2 μM is 6 min in series [4]; 2 min in series [5]; 2.97 h in series [6] (cynomolgus monkey, read-out: Cyno Plasma t1/2); 3.88 h in series [6] (setting [9]).

The CC50 is the concentration that lowers cell viability or growth by half. Regarding `CCOC(=O)[C@H](C)N[P@](=O)(OC[C@@]1(C#N)O[C@@H](c2ccc3c(N)ncnn23)[C@H](O)[C@@H]1O)Oc1ccccc1` [Compound 8, ethyl ((S)-(((2R,3S,4R,5S)-5-(4-aminopyrrolo[2,1-f][1,2,4]triazin-7-yl)-2-cyano-3,4-dihydroxytetrahydrofuran-2-yl)methoxy)(phenoxy)phosphoryl)-L-alaninate], the half-maximal effective concentration (EC50) in series [1] is 91 nM; in series [2], 932 nM; in series [3], 678 nM. In addition, the half-maximal cytotoxic concentration (CC50) in series [7] was greater than 100000 nM; in series [8], 28300 nM. Also, the half-life at 2 μM in series [4] worked out at 2 min; in series [6] (setting [9]), 6.02 h.
